The text below walks through data of patent US4581460A, “Substituted 1-benzoyl-2-phenyliminoimidazolidine derivatives” (Chemie Linz Aktiengesellschaft, priority 1982, dated 1986).

Test system in the first experiment: not given
Experiment: not given
To be noted: U.S. Pat. No. 4,142,051; cited from earlier work.
Consider `O=C(C1CC=CCC1)N1CCNC1=Nc1c(Cl)cccc1Cl` (centres unmarked) [1-(cyclohex-3-en-1-oyl)-2-(2,6-dichlorophenylimino)-imidazolidine], for which the “analgesic properties (prior art)” value is listed as “exhibit analgesic properties”.

Test system in the next experiment: not given
Experiment: not given
The conditions noted are these: U.S. Pat. No. 3,988,345; U.S. Pat. No. 4,389,403; cited from earlier work.
As to `O=C(c1ccccc1)N1CCNC1=Nc1c(Cl)cccc1Cl` [benclonidine, 1-benzoyl-2-(2,6-dichlorophenylimino)-imidazolidine], the “antihypertensive / hypotensive effect (prior art)” value was “marked antihypertensive effect”.

The subject of another experiment is phenyl-p-quinone-induced writhing syndrome of the mouse. In words: Writhing test (phenyl-p-quinone-induced writhing syndrome of the mouse). Format: in vivo. The conditions noted are these: Mus musculus; oral, 60 min before i.p. phenyl-p-quinone; dose protecting 50% of the animals; read-out: ED50 (antiwrithing potency). How it is done:
60 minutes after oral application of the test compounds mice were injected intraperitoneally with 0.3 ml of a 0.02% phenyl-p-quinone solution in a alcohol-water mixture (1:25 v/v). After the phenyl-p-quinone injection each mouse was observed during a span of 20 minutes.
The ED50 values (antiwrithing potency) were computed according to the method of N. R. Thompsom and C. S. Weil (Biometrics 8, 1952, 51-54, 249-263). The ED50 value refers to the dose (mg of test compound/kg of mouse) protecting 50% of the animals from pain in the writhing test.
On the technique in general: In writhing tests, fewer writhes than in controls are read as antinociception.
One may read the ED50 as the dose at which the effect has come halfway, by size or by number of responders. For `COc1ccc(C(=O)N2CCNC2=Nc2c(Cl)cccc2Cl)cc1OC` [1-(3,4-dimethoxybenzoyl)-2-(2,6-dichlorophenylimino)-imidazolidine], the ED50 is 4.36 mg/kg.

For the compound `COc1ccc(C(=O)N2CCNC2=Nc2c(C)cccc2Cl)cc1OC` [1-(3,4-dimethoxybenzoyl)-2-(2-chloro-6-methylphenylimino)-imidazolidine], the ED50 was 4.42 mg/kg.

Consider `Cc1ccc(C(=O)N2CCNC2=Nc2c(Cl)cccc2Cl)cc1F` [1-(3-fluoro-4-methylbenzoyl)-2-(2,6-dichlorophenylimino)-imidazolidine], for which the ED50 stood at 0.5 mg/kg.

In the case of `Cc1cc(C(=O)N2CCNC2=Nc2c(Cl)cccc2Cl)ccc1[N+](=O)[O-]` [1-(3-methyl-4-nitrobenzoyl)-2-(2,6-dichlorophenylimino)-imidazolidine], the ED50 was 0.68 mg/kg.

As for `CS(=O)(=O)c1ccc(C(=O)N2CCNC2=Nc2c(Cl)cccc2Cl)cc1` [1-(p-methylsulfonylbenzoyl)-2-(2,6-dichlorophenylimino)-imidazolidine], the ED50 worked out at 0.75 mg/kg.

On to `CCCOc1ccc(C(=O)N2CCNC2=Nc2c(Cl)cccc2Cl)cc1` [1-(p-n-propoxybenzoyl)-2-(2,6-dichlorophenylimino)-imidazolidine], for which the ED50 was determined as 0.46 mg/kg.

Turning to `O=C(c1cccc(Cl)c1)N1CCNC1=Nc1c(Cl)cccc1Cl` [1-m-chlorobenzoyl-2-(2,6-dichlorophenylimino)-imidazolidine], the ED50 was 0.81 mg/kg.

As to `N#Cc1cccc(C(=O)N2CCNC2=Nc2c(Cl)cccc2Cl)c1` [1-m-cyanobenzoyl-2-(2,6-dichlorophenylimino)-imidazolidine], the ED50 stood at 0.25 mg/kg.

As for `O=C(c1cccc(F)c1)N1CCNC1=Nc1cccc(Cl)c1Cl` [1-m-fluorobenzoyl-2-(2,3-dichlorophenylimino)-imidazolidine], the ED50 stood at 2.08 mg/kg.

On to `O=C(c1ccc(Cl)cc1)N1CCNC1=Nc1cccc(Cl)c1Cl` [1-p-chlorobenzoyl-2-(2,3-dichlorophenylimino)-imidazolidine], for which the ED50 was found to be 1.26 mg/kg.

Regarding `O=C(c1ccc(Cl)cc1)N1CCNC1=Nc1ccc(Cl)cc1Cl` [1-p-chlorobenzoyl-2-(2,4-dichlorophenylimino)-imidazolidine], the ED50 came to 3.54 mg/kg.

Regarding `CCOc1ccc(C(=O)N2CCNC2=Nc2c(Cl)cccc2Cl)cc1` [1-p-ethoxybenzoyl-2-(2,6-dichlorophenylimino)-imidazolidine], the ED50 stood at 0.98 mg/kg.

Take `O=C(c1ccc(F)cc1)N1CCNC1=Nc1cccc(Cl)c1Cl` [1-p-fluorobenzoyl-2-(2,3-dichlorophenylimino)-imidazolidine]: the ED50 turned out to be 1.15 mg/kg.

For the compound `O=C(c1ccc(F)cc1)N1CCNC1=Nc1cc(Cl)ccc1Cl` [1-p-fluorobenzoyl-2-(2,5-dichlorophenylimino)-imidazolidine], the ED50 was 10 mg/kg.

`O=C(c1ccc(F)cc1)N1CCNC1=Nc1c(Cl)cccc1Cl` [1-p-fluorobenzoyl-2-(2,6-dichlorophenylimino)-imidazolidine]: the ED50 was 0.81 mg/kg.

Turning to `Cc1cccc(Cl)c1N=C1NCCN1C(=O)c1ccc(F)cc1` [1-p-fluorobenzoyl-2-(2-chloro-6-methylphenylimino)imidazolidine], the ED50 was 1 mg/kg.

In the case of `CC(C)Oc1ccc(C(=O)N2CCNC2=Nc2c(Cl)cccc2Cl)cc1` [1-p-isopropoxybenzoyl-2-(2,6-dichlorophenylimino)-imidazolidine], the ED50 is 0.54 mg/kg.

For `COc1ccc(C(=O)N2CCNC2=Nc2cccc(Cl)c2Cl)cc1` [1-p-methoxybenzoyl-2-(2,3-dichlorophenylimino)-imidazolidine], the ED50 is 0.99 mg/kg.

Take `COc1ccc(C(=O)N2CCNC2=Nc2c(Cl)cccc2Cl)cc1` [1-p-methoxybenzoyl-2-(2,6-dichlorophenylimino)-imidazolidine]: the ED50 is 0.63 mg/kg.

Regarding `CS(=O)(=O)c1ccc(C(=O)N2CCNC2=Nc2cccc(Cl)c2Cl)cc1` [1-p-methylsulfonylbenzoyl-2-(2,3-dichlorophenylimino)-imidazolidine], the ED50 is 1.04 mg/kg.

Turning to `O=C(c1ccc([N+](=O)[O-])cc1)N1CCNC1=Nc1ccc(Cl)cc1Cl` [1-p-nitrobenzoyl-2-(2,4-dichlorophenylimino)-imidazolidine], the ED50 was 1.77 mg/kg.

The experiment is the same for the next values; noted with them: oral, 60 min before i.p. phenyl-p-quinone; dose protecting 50% of the animals.
As to `CCCCOc1ccc(C(=O)N2CCNC2=Nc2cccc(Cl)c2Cl)cc1` [1-p-n-butoxybenzoyl-2-(2,3-dichlorophenylimino-imidazolidine], the “ED50 (antiwrithing potency)” value is listed as 4.49 mg of test compound/kg of mous.

Still in this experiment, the particulars now being: po; writhing test, mouse; dose protecting 50% of the animals; read-out: ED50 in the writhing test.
For `N#Cc1ccc(C(=O)N2CCNC2=Nc2c(Cl)cccc2Cl)cc1` [1-p-cyanobenzoyl-2-(2,6-dichlorophenylimino)-imidazolidine], the ED50 was 0.55 mg/kg.

On to `CC(C)=CCN1CCC2(C)c3cc(O)ccc3CC1C2C` (centres unmarked) [Pentazocin, reference compound], for which the ED50 is 168 mg/kg.
